pKi: −log10 of the molar value. The source made the active and inactive calls. The calls are words filed in the database; no cut-off is given here. Bounds are passed on as bounds.

Data set [1] is described as follows: Cytotoxicity against CHO-K1 cells expressing human muscarinic receptor M1 incubated for 72 hrs by MTT assay. In kind it is toxicity, cell-based. To be noted: Chinese hamster (Cricetulus griseus). In general terms: Formazan colour is commonly taken as a measure of viable cells.
Data set [2] concerns the target T1, Muscarinic acetylcholine receptor M1 (Homo sapiens) (UniProt P11229).
T1 sequence (whole entry): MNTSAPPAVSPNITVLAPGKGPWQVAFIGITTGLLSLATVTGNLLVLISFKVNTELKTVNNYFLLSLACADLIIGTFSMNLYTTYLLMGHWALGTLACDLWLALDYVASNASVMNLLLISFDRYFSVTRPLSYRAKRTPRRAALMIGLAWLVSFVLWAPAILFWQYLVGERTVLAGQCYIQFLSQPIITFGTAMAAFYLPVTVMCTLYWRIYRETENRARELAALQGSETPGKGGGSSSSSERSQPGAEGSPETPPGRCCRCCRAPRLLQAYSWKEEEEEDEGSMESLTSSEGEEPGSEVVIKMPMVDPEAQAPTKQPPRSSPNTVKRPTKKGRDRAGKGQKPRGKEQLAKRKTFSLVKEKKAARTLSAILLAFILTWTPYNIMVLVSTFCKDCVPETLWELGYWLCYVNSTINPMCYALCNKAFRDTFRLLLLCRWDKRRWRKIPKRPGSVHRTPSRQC
In words: Antagonist activity at human muscarinic M1 receptor expressed in CHO-K1 cell membrane assessed as reduction in carbachol-induced ca2+ influx by fluorescence based assay. To be noted: filed as antagonist. In kind it is functional, cell membranes.

For data set [3], the target named is T1, Muscarinic acetylcholine receptor M1 (Homo sapiens). Kind of data set: Agonist activity at human muscarinic M1 receptor expressed in CHO-K1 cell membrane upto 100 uM by fluorescence based assay. The class given is functional, cell membranes.
In data set [4] the target is T2, Muscarinic acetylcholine receptor M1 (Homo sapiens, UniProt P11229).
T2 sequence (P11229 whole entry): T1 sequence (whole entry)
Kind of data set: Displacement of [3H]NMS from human muscarinic M1 receptor expressed in CHO-K1 cell membrane assessed as inhibition constant incubated for 90 mins by competitive radioligand binding assay. In kind it is cell membranes.

The target of data set [5] is Muscarinic acetylcholine receptor M3 (Homo sapiens, UniProt P20309). Kind of data set: Displacement of [3H]NMS from human muscarinic M3 receptor expressed in CHO-K1 cell membrane assessed as inhibition constant incubated for 90 mins by competitive radioligand binding assay. The class given is cell membranes. In general terms: Displacement assays read how much labelled ligand stays bound in the presence of the test substance.
Muscarinic acetylcholine receptor M3, sequence (P20309 whole entry): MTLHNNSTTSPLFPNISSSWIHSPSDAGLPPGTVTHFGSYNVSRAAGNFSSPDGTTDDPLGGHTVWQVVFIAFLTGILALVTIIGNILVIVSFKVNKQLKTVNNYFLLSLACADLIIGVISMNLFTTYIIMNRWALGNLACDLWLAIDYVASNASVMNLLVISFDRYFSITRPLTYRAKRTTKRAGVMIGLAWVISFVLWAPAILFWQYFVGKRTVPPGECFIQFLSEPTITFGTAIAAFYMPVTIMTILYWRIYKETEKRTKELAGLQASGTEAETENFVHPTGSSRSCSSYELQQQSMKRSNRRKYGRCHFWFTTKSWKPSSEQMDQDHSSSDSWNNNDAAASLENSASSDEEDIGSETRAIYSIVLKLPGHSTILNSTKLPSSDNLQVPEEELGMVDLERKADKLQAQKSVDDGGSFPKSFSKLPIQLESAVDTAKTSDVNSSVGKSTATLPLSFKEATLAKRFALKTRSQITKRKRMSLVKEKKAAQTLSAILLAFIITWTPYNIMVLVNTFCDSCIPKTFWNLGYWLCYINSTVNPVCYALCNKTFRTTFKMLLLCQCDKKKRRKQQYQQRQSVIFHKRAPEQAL

Data set [6] deals with T3, Muscarinic acetylcholine receptor M4 (Homo sapiens, UniProt P08173).
T3 sequence (P08173 whole entry): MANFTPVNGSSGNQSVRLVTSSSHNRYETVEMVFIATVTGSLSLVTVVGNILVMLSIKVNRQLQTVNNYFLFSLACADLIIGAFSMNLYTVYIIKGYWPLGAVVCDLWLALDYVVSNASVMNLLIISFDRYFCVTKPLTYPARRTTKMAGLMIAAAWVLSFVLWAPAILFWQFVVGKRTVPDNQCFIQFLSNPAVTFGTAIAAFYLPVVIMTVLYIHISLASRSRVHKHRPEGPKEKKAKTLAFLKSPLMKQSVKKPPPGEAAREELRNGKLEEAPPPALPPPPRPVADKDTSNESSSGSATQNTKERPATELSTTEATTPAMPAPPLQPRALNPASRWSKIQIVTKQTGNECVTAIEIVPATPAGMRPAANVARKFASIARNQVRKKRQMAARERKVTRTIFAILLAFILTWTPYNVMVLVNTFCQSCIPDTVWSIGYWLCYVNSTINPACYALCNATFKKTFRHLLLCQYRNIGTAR
Kind of data set: Displacement of [3H]NMS from human muscarinic M4 receptor expressed in CHO-K1 cell membrane assessed as inhibition constant incubated for 90 mins by competitive radioligand binding assay. The class given is cell membranes.

Data set [7] addresses T4, Muscarinic acetylcholine receptor M5 (Homo sapiens, UniProt P08912).
T4 sequence (P08912 whole entry): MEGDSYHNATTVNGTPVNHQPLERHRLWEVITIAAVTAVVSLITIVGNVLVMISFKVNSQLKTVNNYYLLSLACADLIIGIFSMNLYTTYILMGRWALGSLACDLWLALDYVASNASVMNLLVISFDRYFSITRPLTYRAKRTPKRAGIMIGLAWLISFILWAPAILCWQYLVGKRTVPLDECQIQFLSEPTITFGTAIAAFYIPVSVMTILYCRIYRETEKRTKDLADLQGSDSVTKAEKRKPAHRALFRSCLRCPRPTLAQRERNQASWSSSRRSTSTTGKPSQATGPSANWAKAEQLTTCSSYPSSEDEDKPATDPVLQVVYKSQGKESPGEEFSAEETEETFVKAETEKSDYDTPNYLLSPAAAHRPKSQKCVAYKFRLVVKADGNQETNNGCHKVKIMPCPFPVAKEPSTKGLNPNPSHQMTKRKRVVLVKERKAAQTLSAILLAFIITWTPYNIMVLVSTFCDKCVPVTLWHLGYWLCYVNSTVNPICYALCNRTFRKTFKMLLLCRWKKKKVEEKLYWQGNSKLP
Kind of data set: Displacement of [3H]NMS from human muscarinic M5 receptor expressed in CHO-K1 cell membrane assessed as inhibition constant incubated for 90 mins by competitive radioligand binding assay. In kind it is cell membranes.

The nature of data set [8]: Lipophilicity, log P of compound at pH 7.4 by HPLC analysis. In kind it is physicochemical. To be noted: buffer.
Data set [9] concerns the target T5, Muscarinic acetylcholine receptor M2 (Homo sapiens, UniProt P08172).
T5 sequence (P08172 whole entry): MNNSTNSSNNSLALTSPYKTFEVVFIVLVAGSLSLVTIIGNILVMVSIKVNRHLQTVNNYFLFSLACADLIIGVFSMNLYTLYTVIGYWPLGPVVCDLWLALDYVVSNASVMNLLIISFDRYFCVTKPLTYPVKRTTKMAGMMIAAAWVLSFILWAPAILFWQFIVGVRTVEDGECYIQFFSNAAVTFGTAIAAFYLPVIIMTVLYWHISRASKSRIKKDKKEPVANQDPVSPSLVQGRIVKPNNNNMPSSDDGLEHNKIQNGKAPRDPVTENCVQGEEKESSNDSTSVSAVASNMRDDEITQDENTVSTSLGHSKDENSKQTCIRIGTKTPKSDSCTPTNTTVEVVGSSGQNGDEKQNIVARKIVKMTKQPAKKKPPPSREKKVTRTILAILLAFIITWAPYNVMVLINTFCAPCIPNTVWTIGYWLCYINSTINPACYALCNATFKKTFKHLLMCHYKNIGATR
Kind of data set: Displacement of [3H]NMS from human muscarinic M2 receptor expressed in CHO-K1 cell membrane assessed as inhibition constant incubated for 90 mins by competitive radioligand binding assay. The class given is cell membranes.

Data set [10] is filed under the species Homo sapiens. In words: Selectivity ratio of Ki for human muscarinic M1 receptor expressed in CHO-K1 cells to Ki for human muscarinic M5 receptor expressed in CHO-K1 cells. The class given is cell-based.
The species named for data set [11] is Homo sapiens. In words: Selectivity ratio of Ki for human muscarinic M3 receptor expressed in CHO-K1 cells to Ki for human muscarinic M5 receptor expressed in CHO-K1 cells. The class given is cell-based.
The target in data set [12] is Muscarinic acetylcholine receptor M2 and M5 (Homo sapiens) (UniProt P08172+P08912). Kind of data set: Selectivity ratio of Ki for human muscarinic M2 receptor expressed in CHO-K1 cells to Ki for human muscarinic M5 receptor expressed in CHO-K1 cells. The class given is cell-based.
The species named for data set [13] is Homo sapiens. In words: Selectivity ratio of Ki for human muscarinic M4 receptor expressed in CHO-K1 cells to Ki for human muscarinic M5 receptor expressed in CHO-K1 cells. In kind it is cell-based.

For the compound `CN1[C@@H]2CC[C@H]1C[C@H](Oc1nc3ccccc3n1-c1ccccc1)C2`, the IC50 at 72 h in data set [1] was no less than 100000 nM. For the same compound, in [2], the Activity entry is “Dose-Dependent Effect”. Further, the outcome in data set [3] was inactive. Moreover, the pKi in data set [4] was 8.05; in data set [5], 7.77; in data set [6], 7.96; in data set [7], 8.09; in data set [9], 7.80. The compound also registered a logP in data set [8] of 3.05.
As to `CN1CCC(OC(=O)N(c2ccccc2)c2ccccc2)CC1`, the concentration for half-maximal inhibition (IC50) at 72 h in data set [1] was no less than 100000 nM. Besides, the Activity result in data set [2] was “Dose-Dependent Effect”. For the same compound, the outcome in [3] was inactive. Also, the negative-log Ki (pKi) in data set [4] was 6.59; in [5], 6.92; in data set [6] it was 6.80; in data set [7] it was 6.59; in data set [9] it was less than 6.00. The compound further gave a logP in data set [8] of 2.11.
In the case of `c1ccc(-n2c(O[C@H]3CN4CCC3CC4)nc3ccccc32)cc1`, the Ratio Ki (in the data set filed under Homo sapiens [10]; in the data set listed under Homo sapiens [11]; in data set [12]; in the data set filed under Homo sapiens [13]) was 1.4 in each case. Further, the IC50 at 72 h in data set [1] is no less than 100000 nM. In addition, the pKi was 7.80 in data set [4]; 8.43 in [5]; 8.03 in data set [6]; 8.59 in data set [7]; 7.15 in data set [9]. In addition, the log partition coefficient (logP) in [8] came to 1.2.
On to `CN1[C@@H]2CC[C@H]1C[C@H](OC(=O)N(c1ccccc1)c1ccccc1)C2`, for which the IC50 at 72 h in data set [1] is no less than 100000 nM. In data set [2], the Activity entry was “Dose-Dependent Effect”. Besides, the result in [3] was inactive. For the same compound, the pKi in [4] was 7.36; in data set [5], 6.97; in data set [6], 7.30; in [7] it was 7.12; in data set [9] it was 6.65. The logP in data set [8] came to 1.58.
The compound `CN1CCC(Oc2nc3ccccc3n2-c2ccccc2)CC1` registered an IC50 at 72 h in [1] of no less than 100000 nM. Moreover, the Activity entry in data set [2] is “Dose-Dependent Effect”. Besides, the result in data set [3] was inactive. Further, the pKi in data set [4] is 7.70; in data set [5], 7.68; in data set [6], 7.49; in [7] it was 7.74; in [9], 6.97. In data set [8], this compound had a log partition coefficient (logP) of 2.94.
The compound `CN1[C@@H]2C[C@@H](Oc3nc4ccccc4n3-c3ccccc3)C[C@H]1[C@@H]1O[C@@H]12` had an IC50 at 72 h in data set [1] of no less than 100000 nM. Further, the pKi was 6.55 in data set [4]; 6.46 in [5]; 6.72 in data set [6]; 6.79 in data set [7]; less than 6.00 in data set [9]. Further, the logP in data set [8] stood at 3.04.
For the compound `CN1CCC(OC(=O)N(c2ccccc2)c2ccccc2)C1` (stereo not given), the IC50 at 72 h in data set [1] is no less than 100000 nM. Besides, the Activity entry in [2] is “Dose-Dependent Effect”. In addition, the result in [3] was inactive. Moreover, the pKi is 6.66 in data set [4]; 6.91 in data set [5]; 6.81 in data set [6]; 6.98 in [7]; less than 6.00 in [9]. This compound showed a logP in data set [8] of 1.91.
`CN1[C@@H]2C[C@@H]3C[C@H]1C(O3)C2OC(=O)N(c1ccccc1)c1ccccc1` (stereo not given in full) returned an IC50 at 72 h in data set [1] of no less than 100000 nM. The Activity result in [2] was “Dose-Dependent Effect”. Also, the outcome in data set [3] was inactive. For the same compound, the pKi in data set [4], in data set [5], in data set [6], in [7] and in [9] was less than 6.00 throughout. In data set [8], this compound showed a logP of 1.58.
In the case of `CN1CCN(Cc2nc3cccnc3n2-c2ccccc2C(=O)O)CC1`, the pKi in [5], in [6] and in data set [9] was less than 6.00 throughout.
On to `CN1CCCC(Oc2nc3ccccc3n2-c2ccccc2)C1` (racemic), for which the IC50 at 72 h in data set [1] was no less than 100000 nM. In addition, the pKi in data set [4] is 6.54; in data set [5], 6.63; in data set [6], 6.82; in data set [7] it was 7.11; in data set [9] it was 6.41. This compound also gave a logP in data set [8] of 3.2.
In the case of `CN1[C@@H]2CC[C@H]1C[C@@H](OC(=O)N(c1ccccc1)c1ccccc1)C2`, the IC50 at 72 h in data set [1] is no less than 100000 nM. Further, the pKi in data set [4], in data set [5], in [6], in data set [7] and in data set [9] was less than 6.00 in each case. The compound also showed a logP in [8] of 2.69.
Consider `CN1CCCC(OC(=O)N(c2ccccc2)c2ccccc2)C1` (stereo not given), for which, in data set [1], the IC50 at 72 h is no less than 100000 nM. The pKi in data set [4], in [5], in data set [6], in data set [7] and in data set [9] was less than 6.00 in each case. The compound also registered a logP in data set [8] of 2.69.
As to `CN1CC(OC(=O)N(c2ccccc2)c2ccccc2)C1`, in data set [1], the IC50 at 72 h is no less than 100000 nM. For the same compound, the pKi is less than 6.00 in data set [4]; 6.47 in data set [5]; 6.61 in data set [6]; less than 6.00 in [7]; less than 6.00 in data set [9]. In addition, in [8], the logP amounted to 1.82.
In data set [1], `CN1CC(Oc2nc3ccccc3n2-c2ccccc2)C1` came in with an IC50 at 72 h of no less than 100000 nM. Further, the pKi in [4], in data set [5], in data set [6], in data set [7] and in data set [9] was less than 6.00 in each case. Also, the logP in data set [8] is recorded as 2.6.

As a reminder, the IC50 is the concentration at which inhibition is half-maximal. Lower therefore signals higher potency. For orientation: pKi means the Ki on a negative log10 scale, so that one unit is a factor of ten. In general, logP refers to the decadic logarithm of the partition coefficient of the neutral form, usually between octanol and water.

The record behind these values is ChEMBL document CHEMBL5634153, “Design, synthesis and preclinical evaluation of muscarine receptor antagonists via a scaffold-hopping approach” (Eur J Med Chem, 2023).
